Measurements published in ChEMBL document CHEMBL1201862, “PubChem BioAssay data set” (2004).
Calls of active or inactive are those of the source.

Assays:
[1] = biological target: T1, Calpain-2 catalytic subunit (Sus scrofa, UniProt P43367); assay: pig calpain II inhibitor potency, dose response, biochemical, fluorogenic peptide substrate (AID 1420); format: functional
T1 sequence (P43367 whole entry): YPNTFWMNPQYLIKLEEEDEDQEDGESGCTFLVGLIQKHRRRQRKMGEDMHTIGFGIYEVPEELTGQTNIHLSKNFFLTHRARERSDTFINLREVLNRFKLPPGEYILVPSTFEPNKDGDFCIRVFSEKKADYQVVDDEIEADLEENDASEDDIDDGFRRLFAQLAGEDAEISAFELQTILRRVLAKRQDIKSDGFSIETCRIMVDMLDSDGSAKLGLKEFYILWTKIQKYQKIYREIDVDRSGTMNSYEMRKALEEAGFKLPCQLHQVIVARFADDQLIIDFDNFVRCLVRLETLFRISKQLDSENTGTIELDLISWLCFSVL

[2] = biological target: T2, Ubiquitin-conjugating enzyme E2 N (Homo sapiens, UniProt P61088); format: functional;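 further: Dose-response confirmation in a TR-FRET assay detecting UBC13-driven polyubiquitin chain formation, inhibition measured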
T2 sequence (P61088 whole entry): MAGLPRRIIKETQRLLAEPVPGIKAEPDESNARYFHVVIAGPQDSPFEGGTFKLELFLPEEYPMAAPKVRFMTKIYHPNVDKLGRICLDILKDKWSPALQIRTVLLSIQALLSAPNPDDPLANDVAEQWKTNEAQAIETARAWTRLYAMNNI

[3] = biological target: T3, Histone-lysine N-methyltransferase NSD2 (Homo sapiens, UniProt O96028); format: biochemical
T3 sequence (O96028 whole entry): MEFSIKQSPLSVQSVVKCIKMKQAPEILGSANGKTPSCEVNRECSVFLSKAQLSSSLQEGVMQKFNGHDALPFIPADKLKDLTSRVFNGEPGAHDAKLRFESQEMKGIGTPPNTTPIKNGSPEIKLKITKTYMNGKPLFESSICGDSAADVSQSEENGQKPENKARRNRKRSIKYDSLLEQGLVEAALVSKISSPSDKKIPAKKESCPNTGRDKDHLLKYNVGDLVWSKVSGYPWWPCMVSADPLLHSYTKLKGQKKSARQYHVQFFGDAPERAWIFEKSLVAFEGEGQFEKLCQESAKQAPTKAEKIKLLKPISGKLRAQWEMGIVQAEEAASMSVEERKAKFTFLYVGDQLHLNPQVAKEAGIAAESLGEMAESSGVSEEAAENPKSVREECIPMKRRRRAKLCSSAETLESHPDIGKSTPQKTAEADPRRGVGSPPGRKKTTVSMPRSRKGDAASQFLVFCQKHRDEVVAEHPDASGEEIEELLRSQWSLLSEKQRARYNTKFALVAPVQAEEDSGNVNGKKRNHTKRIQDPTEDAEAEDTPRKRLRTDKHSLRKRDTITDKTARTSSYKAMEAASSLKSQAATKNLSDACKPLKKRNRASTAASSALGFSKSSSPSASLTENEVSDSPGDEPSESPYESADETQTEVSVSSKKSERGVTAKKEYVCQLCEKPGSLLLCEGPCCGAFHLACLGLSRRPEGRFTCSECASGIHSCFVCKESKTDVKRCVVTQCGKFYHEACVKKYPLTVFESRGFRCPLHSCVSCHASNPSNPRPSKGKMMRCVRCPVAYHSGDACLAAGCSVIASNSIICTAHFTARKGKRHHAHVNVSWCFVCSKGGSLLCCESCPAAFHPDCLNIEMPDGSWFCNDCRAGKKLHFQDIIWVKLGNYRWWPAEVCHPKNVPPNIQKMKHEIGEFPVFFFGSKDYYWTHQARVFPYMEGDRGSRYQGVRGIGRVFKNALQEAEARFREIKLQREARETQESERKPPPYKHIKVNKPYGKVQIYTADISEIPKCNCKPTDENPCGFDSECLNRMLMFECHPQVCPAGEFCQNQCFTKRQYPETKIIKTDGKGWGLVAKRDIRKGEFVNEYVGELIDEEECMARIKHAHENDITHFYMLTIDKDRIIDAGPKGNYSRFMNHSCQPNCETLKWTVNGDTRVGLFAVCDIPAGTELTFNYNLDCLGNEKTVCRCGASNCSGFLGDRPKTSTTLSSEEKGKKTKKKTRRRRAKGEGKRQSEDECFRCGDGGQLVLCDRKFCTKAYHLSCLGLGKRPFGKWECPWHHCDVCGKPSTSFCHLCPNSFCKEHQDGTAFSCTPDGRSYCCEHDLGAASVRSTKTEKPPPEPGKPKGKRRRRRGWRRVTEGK

[4] = biological target: Large T antigen (Simian virus 40, UniProt P03070); format: functional, Betapolyomavirus macacae;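 further: Confirmatory-stage PubChem screen for compounds that inhibit SV40 T antigen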
Sequence of Large T antigen (P03070 whole entry): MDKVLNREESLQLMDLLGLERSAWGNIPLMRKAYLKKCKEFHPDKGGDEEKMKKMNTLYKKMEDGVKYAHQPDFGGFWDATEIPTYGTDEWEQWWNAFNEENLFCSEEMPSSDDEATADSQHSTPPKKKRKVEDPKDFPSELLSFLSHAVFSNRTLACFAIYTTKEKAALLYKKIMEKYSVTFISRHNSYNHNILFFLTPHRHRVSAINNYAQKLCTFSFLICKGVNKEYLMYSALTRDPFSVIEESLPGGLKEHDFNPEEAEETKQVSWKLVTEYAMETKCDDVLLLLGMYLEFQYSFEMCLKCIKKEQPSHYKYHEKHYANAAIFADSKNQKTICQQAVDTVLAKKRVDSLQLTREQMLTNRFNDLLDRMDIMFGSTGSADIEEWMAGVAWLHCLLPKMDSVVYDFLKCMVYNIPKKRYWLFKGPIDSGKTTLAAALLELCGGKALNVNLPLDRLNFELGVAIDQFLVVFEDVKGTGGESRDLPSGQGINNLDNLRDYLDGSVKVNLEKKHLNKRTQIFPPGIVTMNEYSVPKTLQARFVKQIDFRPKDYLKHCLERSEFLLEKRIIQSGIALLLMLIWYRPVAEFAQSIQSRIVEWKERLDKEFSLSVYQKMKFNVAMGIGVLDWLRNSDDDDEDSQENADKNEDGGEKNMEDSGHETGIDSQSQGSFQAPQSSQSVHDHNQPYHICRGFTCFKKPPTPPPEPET

[5] = cytotoxicity in OVCAR8 ovarian cancer cells, dose response, PAX8 project, cell-based, plate reader, dry powder samples (AID 743197); format: functional; conditions: OVCAR-8
[6] = NIH:OVCAR-3 ovarian cancer cell cytotoxicity, dose response, PAX8 inhibitor project, plate reader, dry powder samples (AID 743044); format: functional, cell-based
[7] = biological target: Paired box protein Pax-8 (Homo sapiens, UniProt Q06710); assay: inhibitors of PAX8-driven TPO luciferase reporter, dose response, RMG-I cells, cherry-pick (AID 687027); format: functional, cell-based;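 further: luciferase reporter driven by Pax8 target thyroperoxidase promoter measured by SteadyGlo luminescence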
Sequence of Paired box protein Pax-8 (Q06710 whole entry): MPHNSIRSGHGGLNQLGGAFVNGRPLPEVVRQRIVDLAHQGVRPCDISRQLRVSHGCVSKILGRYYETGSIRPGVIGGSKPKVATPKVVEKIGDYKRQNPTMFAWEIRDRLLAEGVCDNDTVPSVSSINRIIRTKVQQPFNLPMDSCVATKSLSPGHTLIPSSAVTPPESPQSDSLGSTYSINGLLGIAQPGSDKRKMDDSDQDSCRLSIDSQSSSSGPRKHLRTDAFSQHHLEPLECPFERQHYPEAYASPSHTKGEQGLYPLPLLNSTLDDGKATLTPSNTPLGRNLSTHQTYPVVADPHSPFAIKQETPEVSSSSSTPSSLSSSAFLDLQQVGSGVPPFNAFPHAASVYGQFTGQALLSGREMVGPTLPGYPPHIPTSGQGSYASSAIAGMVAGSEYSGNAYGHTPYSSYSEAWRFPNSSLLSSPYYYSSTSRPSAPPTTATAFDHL

[8] = IGROV1 ovarian cancer cell cytotoxicity, dose response, PAX8 inhibitor project, plate reader, dry powder samples (AID 743043); format: functional, cell-based; conditions: IGROV-1
[9] = biological target: T4, Replicative DNA helicase DnaB (Mycobacterium tuberculosis, UniProt P9WMR3); assay: DnaB intein splicing inhibitors, dose response, biochemical, cell-free fluorescence (AID 449749); format: functional
T4 sequence (P9WMR3 whole entry): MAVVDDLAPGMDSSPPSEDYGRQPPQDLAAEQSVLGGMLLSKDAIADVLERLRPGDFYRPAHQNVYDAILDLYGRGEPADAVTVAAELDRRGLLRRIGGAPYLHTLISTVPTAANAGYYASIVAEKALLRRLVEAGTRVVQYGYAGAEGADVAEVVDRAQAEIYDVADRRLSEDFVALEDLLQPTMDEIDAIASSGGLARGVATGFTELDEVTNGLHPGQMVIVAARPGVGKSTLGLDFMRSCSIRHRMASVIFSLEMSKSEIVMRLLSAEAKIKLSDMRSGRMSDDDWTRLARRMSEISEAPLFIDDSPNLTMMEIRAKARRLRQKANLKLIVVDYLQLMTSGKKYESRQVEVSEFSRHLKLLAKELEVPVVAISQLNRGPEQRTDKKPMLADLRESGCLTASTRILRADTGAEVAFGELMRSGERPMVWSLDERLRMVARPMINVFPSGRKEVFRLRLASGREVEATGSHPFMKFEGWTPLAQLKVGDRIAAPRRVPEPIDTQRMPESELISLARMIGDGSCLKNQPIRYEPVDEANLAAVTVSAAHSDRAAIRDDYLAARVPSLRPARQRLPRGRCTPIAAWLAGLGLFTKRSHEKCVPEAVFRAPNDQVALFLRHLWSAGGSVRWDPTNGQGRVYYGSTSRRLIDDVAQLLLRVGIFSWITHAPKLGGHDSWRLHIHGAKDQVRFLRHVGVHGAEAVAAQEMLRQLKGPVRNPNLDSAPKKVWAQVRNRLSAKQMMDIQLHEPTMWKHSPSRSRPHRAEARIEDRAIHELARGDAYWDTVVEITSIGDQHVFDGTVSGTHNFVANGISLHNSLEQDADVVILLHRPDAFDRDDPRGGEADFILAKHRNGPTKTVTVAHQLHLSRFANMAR

[10] = biological target: T5, Protein RecA (Mycobacterium tuberculosis, UniProt P9WHJ3); assay: Fluorescence Cell-Free Homogeneous Dose Retest to Identify Inhibitors of RecA-Intein Splicing Activity. [Related pubchem assays (depositor defined):AID2097, AID2223, AID489010, AID492950]; format: functional
T5 sequence (P9WHJ3 whole entry): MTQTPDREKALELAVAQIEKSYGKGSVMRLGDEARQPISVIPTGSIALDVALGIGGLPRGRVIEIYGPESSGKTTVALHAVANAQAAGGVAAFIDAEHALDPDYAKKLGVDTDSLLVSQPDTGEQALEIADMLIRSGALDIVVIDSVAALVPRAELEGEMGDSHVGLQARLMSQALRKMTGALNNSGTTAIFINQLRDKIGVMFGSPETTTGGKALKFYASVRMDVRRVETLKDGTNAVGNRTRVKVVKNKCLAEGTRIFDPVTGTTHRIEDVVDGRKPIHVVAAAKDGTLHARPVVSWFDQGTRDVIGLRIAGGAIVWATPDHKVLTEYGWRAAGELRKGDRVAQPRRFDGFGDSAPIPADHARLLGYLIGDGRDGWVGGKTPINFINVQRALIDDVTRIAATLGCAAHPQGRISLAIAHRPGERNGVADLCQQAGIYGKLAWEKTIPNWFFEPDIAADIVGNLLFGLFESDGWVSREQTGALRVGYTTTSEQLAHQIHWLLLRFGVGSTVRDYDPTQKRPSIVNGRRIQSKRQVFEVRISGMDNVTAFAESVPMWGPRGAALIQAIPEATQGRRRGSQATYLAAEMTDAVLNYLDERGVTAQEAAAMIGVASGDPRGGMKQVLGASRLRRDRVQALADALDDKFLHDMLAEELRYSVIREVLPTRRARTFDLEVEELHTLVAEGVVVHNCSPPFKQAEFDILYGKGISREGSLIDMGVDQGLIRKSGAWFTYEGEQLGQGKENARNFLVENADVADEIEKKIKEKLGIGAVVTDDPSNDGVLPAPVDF

[11] = THP-1 cell cytotoxicity, dose response, cytotoxicity control for non-replicating M. tuberculosis project (AID 489025); format: functional

CCOC(=O)C1CCCN(c2c(NCCCN(C)c3ccccc3)c(=O)c2=O)C1 (stereo unspecified)
IC50 [1]: > 50 µM (not active)

CC(C)Cn1cc(C(=O)NC2CCN(Cc3ccccc3)CC2)c2c3ccccc3n(C)c2c1=O
IC50 [2]: > 20 µM (inactive)

CCn1c(O)c(N=NC(S)=NCC2CCCO2)c2ccccc21 (stereo unspecified)
IC50 [2]: > 20 µM (inactive)

CCN(CC)S(=O)(=O)c1cc(NS(=O)(=O)c2ccccc2)ccc1C
IC50 [1]: > 50 µM (not active)

Cc1ccc(-c2noc(CSc3nnc(Cc4ccccc4)n3-c3cccc(C)c3)n2)cc1
IC50 [1]: 5.35 µM (not active)

CCCC[C@@H](CNC)NC[C@H](NCCCCC1CCCCC1)C(C)C
IC50 [2]: > 20 µM (inactive)

O=C(/C=C/c1ccco1)Nc1ccccc1C(=O)O
AC50 [3]: > 20 µM (inactive)

CC(=O)Nc1ccc(OC(=O)C(CCS(C)(=O)=O)N2C(=O)c3ccccc3C2=O)cc1 (stereo unspecified)
IC50 [4]: 8.46 µM (active)

Cc1ccc(C2CC(c3cccs3)=NN2C(=O)c2ccco2)o1 (stereo unspecified)
IC50 [1]: > 50 µM (not active)

CCCOc1ccc(OCCN2CCCC(C)C2)cc1 (stereo unspecified)
IC50 [1]: < 0.4 µM (not active)

C=C(C)c1cccc(C(C)(C)NC(=O)NC2CN3CCC2CC3)c1 (stereo unspecified)
AC50 [3]: 15.6 µM (active)

CCc1ccc(N(C(=O)c2snc(C(N)=O)c2N)C(C(=O)NC2CCCC2)c2ccco2)cc1 (stereo unspecified)
IC50 [2]: > 20 µM (inactive)

O=C(CCCN1C(=O)c2ccccc2C1=O)N1CCC(c2ccccc2)C1 (stereo unspecified)
IC50 [1]: 25.1 µM (not active)

CC1=NC(=S)NC(c2cccs2)/C1=C(\O)OCC(C)C (stereo unspecified)
IC50 [4]: 51.4 µM (active)

C[C@@H]1CN([C@@H](C)CO)C(=O)c2cc(NC(=O)c3ccccc3)ccc2O[C@@H](C)CCCCO[C@@H]1CN(C)Cc1ccc(C(F)(F)F)cc1
AC50 [5]: > 70 µM (inactive)
AC50 [6]: 30.4 µM (active)
AC50 [7]: 9.74 µM (active)

C[C@@H]1CCCCO[C@@H](CN(C)C(=O)Nc2cccc3ccccc23)[C@H](C)CN([C@H](C)CO)C(=O)c2cc(NS(=O)(=O)c3ccc(F)cc3)ccc2O1
AC50 [5]: > 70 µM (inactive)
AC50 [8]: 45.5 µM (active)
AC50 [7]: 5.4 µM (active)

C[C@H](CO)N1C[C@H](C)[C@H](CN(C)CC2CCCCC2)OCCCC[C@H](C)Oc2ccc(NC(=O)Nc3ccccc3)cc2C1=O
AC50 [8]: 38.2 µM (active)
AC50 [6]: 25 µM (active)
AC50 [7]: 14.2 µM (active)

C[C@H](CO)N1C[C@H](C)[C@H](CN(C)Cc2ccc(Cl)c(Cl)c2)OCCCC[C@H](C)Oc2ccc(NC(=O)Nc3ccc(C(F)(F)F)cc3)cc2C1=O
AC50 [5]: 63 µM (active)
AC50 [8]: 43.1 µM (active)
AC50 [7]: 5.3 µM (active)

Cc1cccc(S(=O)(=O)N2CC[C@@H]3[C@H](CO)N(C)c4ccc(C#Cc5ccc(F)cc5)cc4[C@@H]32)c1
AC50 [5]: > 60 µM (inactive)
AC50 [8]: 41.8 µM (active)
AC50 [7]: 8.27 µM (active)

C[C@H](CO)N1C[C@H](C)[C@H](CN(C)Cc2ccc(Cl)c(Cl)c2)OCCCC[C@H](C)Oc2ccc(NS(=O)(=O)c3ccc(F)cc3)cc2C1=O
AC50 [6]: 48.3 µM (active)
AC50 [7]: 4.85 µM (active)

Cc1[nH]n(-c2ccccc2)c(=O)c1C(C[N+](=O)[O-])c1ccc(Cl)cc1 (stereo unspecified)
AC50 [3]: 9.52 µM (active)
AC50 [9]: 5.32 µM (active)
EC50 [10]: 3.22 µM (active)

Cc1ccc2nc(Cl)c(/C=N/Nc3ccc(C(=O)O)cc3)cc2c1
IC50 [1]: 4.02 µM (not active)

Cc1nn(C)cc1/C=N/NC(=O)c1sc2ccccc2c1Cl
CC50 [11]: > 40 µM (active)
